Structures are written as SMILES.

The nature of the data set: in vitro. Conditions: human, hek293t cells.
Consider `CNC(=O)C(C#N)=Cc1cccc(-c2ccncc2)c1` [9-L14, 2-cyano-N-methyl-3-[3-(pyridin-4-yl)phenyl]prop-2-enamide], for which the viability (as a rule, a read-out of living cells in per cent, often relative to untreated cells) at 48 h, 25 µM amounted to 108%. For `Cn1cc(C=C(C#N)C(=O)Nc2ccccc2F)c(-c2ccncc2)n1` [9-L15, 2-cyano-N-(2-fluorophenyl)-3-[1-methyl-3-(pyridin-4-yl)-1H-pyrazol-4-yl]prop-2-enamide] the value was 130%. For `Cn1cc(C=C(C#N)C(=O)NC2CCCC2)c(-c2ccncc2)n1` [9-L16, 2-cyano-N-cyclopentyl-3-[1-methyl-3-(pyridin-4-yl)-1H-pyrazol-4-yl]prop-2-enamide] the value was 119%. Consider `COc1ccccc1C=CC=C(C#N)C(=O)Nc1ccccn1` [9-L17, 2-cyano-5-(2-methoxyphenyl)-N-(pyridin-2-yl)penta-2,4-dienamide], for which the viability at 48 h, 25 µM was 91.4%. Turning to `CC(=O)N(C)c1cccc(NC(=O)C(C#N)=Cc2ccco2)c1` [9-L18, 2-cyano-3-(furan-2-yl)-N-[3-(N-methylacetamido)phenyl]prop-2-enamide], the viability at 48 h, 25 µM is 104%. For `N#CC1=C(N2CCOCC2)SC(c2cccc([N+](=O)[O-])c2)NC1=O` (stereo not shown) [9-L19, 6-(morpholin-4-yl)-2-(3-nitrophenyl)-4-oxo-3,4-dihydro-2H-1,3-thiazine-5-carbonitrile] the value was 129%. For `CC(C)Oc1ccccc1C=C(C#N)C(=O)Nc1ccc(Cl)cc1` [9-L20, N-(4-chlorophenyl)-2-cyano-3-[2-(propan-2-yloxy)phenyl]prop-2-enamide] the value was 89.4%. For `CC(NC(=O)C(C#N)=Cc1ccc(C(F)(F)F)cc1)c1ccccc1` (stereo not shown) [9-L21, 2-cyano-N-(1-phenylethyl)-3-[4-(trifluoromethyl)phenyl]prop-2-enamide] the value was 2.11%; for `CC(O)=C(C#N)C(=O)Nc1ccc(-c2ccccc2Cl)c(Cl)c1` [9-L22, 2-cyano-N-{2,2'-dichloro-[1,1'-biphenyl]-4-yl}-3-hydroxybut-2-enamide], 117%; for `N#CC(=Cc1cnn(Cc2ccccc2)c1)C(=O)Nc1nccs1` [9-M03, 3-(1-benzyl-1H-pyrazol-4-yl)-2-cyano-N-(1,3-thiazol-2-yl)prop-2-enamide], 111%.

Take `Cc1ccc(C=C(C#N)C(N)=O)c(C)c1` [9-M04, 2-cyano-3-(2,4-dimethylphenyl)prop-2-enamide]: the viability at 48 h, 25 µM came to 115%. In the case of `N#CC(=Cc1cccc2nccn12)C(=O)Nc1ccccc1` [9-M05, 2-cyano-3-{imidazo[1,2-a]pyridin-5-yl}-N-phenylprop-2-enamide], the viability at 48 h, 25 µM came to 125%. `N#CC(=Cc1ccc(F)c(F)c1)C(=O)NC1CC1` [9-M06, 2-cyano-N-cyclopropyl-3-(3,4-difluorophenyl)prop-2-enamide]: the viability at 48 h, 25 µM amounted to 109%.

Consider `CC(C)NC(=O)C(C#N)=Cc1ccc(Cl)c(Cl)c1` [9-M07, 2-cyano-3-(3,4-dichlorophenyl)-N-(propan-2-yl)prop-2-enamide], for which the viability at 48 h, 25 µM amounted to 30.2%. For `CSc1ccc(C=C(C#N)C(=O)Nc2ccc(C(=O)O)cc2)cc1` [9-M08, 4-{2-cyano-3-[4-(methylsulfanyl)phenyl]prop-2-enamido}benzoic acid] the value was 118%; for `N#CC(=Cc1ccsc1)C(=O)Nc1cccc2ccccc12` [9-M09, 2-cyano-N-(naphthalen-1-yl)-3-(thiophen-3-yl)prop-2-enamide], 120%; for `Cn1cc(C=C(C#N)C(=O)Nc2ccc(Oc3ccccc3)cc2)cn1` [9-M10, 2-cyano-3-(1-methyl-1H-pyrazol-4-yl)-N-(4-phenoxyphenyl)prop-2-enamide], 109%. In the case of `CC(C)NC(=O)C(C#N)=Cc1ccc(C#N)cc1` [9-M11, 2-cyano-3-(4-cyanophenyl)-N-(propan-2-yl)prop-2-enamide], the viability at 48 h, 25 µM stood at 123%.

Take `CCc1oc2ccccc2c1C=C(C#N)C(=O)NC1CC1` [9-M12, 2-cyano-N-cyclopropyl-3-(2-ethyl-1-benzofuran-3-yl)prop-2-enamide]: the viability at 48 h, 25 µM was determined as 74.5%.

Take `COc1c(Cl)cc(Cl)cc1C=C(C#N)C(N)=O` [9-M13, 2-cyano-3-(3,5-dichloro-2-methoxyphenyl)prop-2-enamide]: the viability at 48 h, 25 µM worked out at 137%. For the compound `N#CC(=Cc1cnc(-c2ccccc2)nc1)C(=O)NCc1ccco1` [9-M14, 2-cyano-N-[(furan-2-yl)methyl]-3-(2-phenylpyrimidin-5-yl)prop-2-enamide], the viability at 48 h, 25 µM is 143%. Next, `N#CC(=Cc1ccccc1)C(=O)NC1CC1` [9-M15, 2-cyano-N-cyclopropyl-3-phenylprop-2-enamide]: 128%. As for `C=CCNC(=O)C(C#N)=Cc1cnn(-c2ccc(Cl)cc2)c1` [9-M16, 3-[1-(4-chlorophenyl)-1H-pyrazol-4-yl]-2-cyano-N-(prop-2-en-1-yl)prop-2-enamide], the viability at 48 h, 25 µM is 115%. For the compound `COCCNC(=O)C(C#N)=Cc1sccc1C` [9-M17, 2-cyano-N-(2-methoxyethyl)-3-(3-methylthiophen-2-yl)prop-2-enamide], the viability at 48 h, 25 µM is 131%. With `Cc1cnc(-c2cccc(NC(=O)C(C#N)=Cc3ccco3)c2)o1` [9-M18, 2-cyano-3-(furan-2-yl)-N-[3-(5-methyl-1,3-oxazol-2-yl)phenyl]prop-2-enamide], the viability at 48 h, 25 µM stood at 116%. As for `Cc1ccc(NC(=O)C(C#N)=Cc2ccsc2)c(C)c1` [9-M19, 2-cyano-N-(2,4-dimethylphenyl)-3-(thiophen-3-yl)prop-2-enamide], the viability at 48 h, 25 µM turned out to be 102%. For the compound `Cc1nn(C)c(C)c1C=C(C#N)C(=O)Nc1cccc(Cl)c1C` [9-M20, N-(3-chloro-2-methylphenyl)-2-cyano-3-(1,3,5-trimethyl-1H-pyrazol-4-yl)prop-2-enamide], the viability at 48 h, 25 µM was 111%. In the case of `N#CC(=Cc1ccccc1OC(F)F)C(=O)Nc1ccccc1Cl` [9-M21, N-(2-chlorophenyl)-2-cyano-3-[2-(difluoromethoxy)phenyl]prop-2-enamide], the viability at 48 h, 25 µM came out at 119%. `N#CC(=Cc1cccs1)C(=O)Nc1cccc2ccccc12` [9-M22, 2-cyano-N-(naphthalen-1-yl)-3-(thiophen-2-yl)prop-2-enamide]: the viability at 48 h, 25 µM turned out to be 100%. Next, `Cc1ccoc1C=C(C#N)C(=O)NCCc1ccccc1` [9-N03, 2-cyano-3-(3-methylfuran-2-yl)-N-(2-phenylethyl)prop-2-enamide]: 93.9%; `CC(NC(=O)C(C#N)=Cc1cccc(Cl)c1Cl)c1ccccc1` (stereo not shown) [9-N04, 2-cyano-3-(2,3-dichlorophenyl)-N-(1-phenylethyl)prop-2-enamide]: 3.94%.

As for `N#CC(=Cc1ccc(Cl)c([N+](=O)[O-])c1)C(=O)N1CCCC1` [9-N05, 3-(4-chloro-3-nitrophenyl)-2-(pyrrolidine-1-carbonyl)prop-2-enenitrile], the viability at 48 h, 25 µM was found to be 5.4%. On to `N#CC(C(=O)NC1CCCCC1)=C1N=C(N)c2ccccc21` [9-N06, 2-(3-amino-1H-isoindol-1-ylidene)-2-cyano-N-cyclohexylacetamide], for which the viability at 48 h, 25 µM was determined as 80.2%. Turning to `Cc1cc(C=C(C#N)C(=O)Nc2cn[nH]c2)c(C)n1-c1ccc(F)cc1` [9-N07, 2-cyano-3-[1-(4-fluorophenyl)-2,5-dimethyl-1H-pyrrol-3-yl]-N-(1H-pyrazol-4-yl)prop-2-enamide], the viability at 48 h, 25 µM turned out to be 95.1%.

Values taken from paper PMC11995724, “Antibiotic target discovery by integrated phenotypic and activity-based profiling of electrophilic fragments” (Cell chemical biology, 2025).
